One test has as its system CMV. The test can be described thus: microbe, parasite or virus in culture. The settings on record: Human betaherpesvirus 5, 72 h, read-out: CMV-Luc Cellular EC50, NN-NHDF cells, MOI 1, 72 hrs. The class given is cell-based.
A further test deals with CMV-polymerase (Human cytomegalovirus (strain AD169) (HHV-5) (Human herpesvirus 5), UniProt P08546). Description: biochemical.
The mark [1] stands for this setting: read-out: CMV-polymerase Biochemical IC50.
Where [2] appears, read: CMV-polymerase Biochemical IC50.

Usually EC50 stands for the concentration giving half of the maximal effect. Usually IC50 stands for the concentration that gives 50% inhibition.

Where two headings read alike, the source gives them in different places.

For the molecule `Cn1nc(C(=O)NCc2ccc(C#N)cc2)c2c1C(=O)N(CC1(S(=O)(=O)NCCO)CC1)CC2` [Example 145, N-(4-Cyanobenzyl)-6-((1-(N-(2-hydroxyethyl)sulfamoyl)cyclopropyl)methyl)-1-methyl-7-oxo-4,5,6,7-tetrahydro-1H-pyrazolo[3,4-c]pyridine-3-carboxamide], the 50% effective concentration (EC50) in the test on CMV was 303 nM. Further, the 50% inhibitory concentration (IC50) at CMV-polymerase (setting [1]) is 14 nM.

Take `Cn1nc(C(=O)NCc2ccc(Cl)cc2)c2c1C(=O)N(CC1(S(=O)(=O)N3CC(O)C3)CC1)CC2` [Example 150, N-(4-Chlorobenzyl)-6-((1-((3-hydroxyazetidin-1-yl)sulfonyl)cyclopropyl)methyl)-1-methyl-7-oxo-4,5,6,7-tetrahydro-1H-pyrazolo[3,4-c]pyridine-3-carboxamide]: the EC50 with CMV stood at 67 nM. Further, the IC50 on CMV-polymerase (setting [1]) came to 6 nM.

Turning to `CC(C)(O)Cn1nc(C(=O)NCc2ccc(C#N)cc2)c2c1C(=O)N(CC1(S(=O)(=O)C3CC3)CC1)CC2` [Example 230, N-(4-Cyanobenzyl)-6-((1-(cyclopropylsulfonyl)cyclopropyl)methyl)-1-(2-hydroxy-2-methylpropyl)-7-oxo-4,5,6,7-tetrahydro-1H-pyrazolo[3,4-c]pyridine-3-carboxamide], in the test on CMV, the half-maximal effective concentration (EC50) stood at 31 nM. Moreover, at CMV-polymerase (setting [1]), the IC50 turned out to be 1 nM.

For `CC1(S(=O)(=O)C2(CN3CCc4c(C(=O)NCc5ccc(Cl)cc5)nn(CCOCCN)c4C3=O)CC2)CC1` [Example 223, 1-(2-(2-Aminoethoxy)ethyl)-N-(4-chlorobenzyl)-6-((1-((1-methylcyclopropyl)sulfonyl)cyclopropyl)methyl)-7-oxo-4,5,6,7-tetrahydro-1H-pyrazolo[3,4-c]pyridine-3-carboxamide], the EC50 in the test with CMV came to 49 nM. At CMV-polymerase (setting [2]), this molecule gave an IC50 of 5 nM.

For `Cn1nc(-c2noc(Cc3ccc(C#N)cc3)n2)c2c1C(=O)N(CC1(S(=O)(=O)C3CC3)CC1)CC2` [Example 28, 4-((3-(6-((1-(Cyclopropylsulfonyl)cyclopropyl)methyl)-1-methyl-7-oxo-4,5,6,7-tetrahydro-1H-pyrazolo[3,4-c]pyridin-3-yl)-1,2,4-oxadiazol-5-yl)methyl)benzonitrile], the EC50 with CMV came to 24 nM. On CMV-polymerase (setting [2]), this molecule yielded a concentration for half-maximal inhibition (IC50) of 1 nM.

As to `Cn1nc(C(=O)NCc2ccc(Cl)cc2)c2c1C(=O)N(CC1(S(=O)(=O)NC(C)(C)CO)CC1)CC2` [Example 148, N-(4-Chlorobenzyl)-6-((1-(N-(1-hydroxy-2-methylpropan-2-yl)sulfamoyl)cyclopropyl)methyl)-1-methyl-7-oxo-4,5,6,7-tetrahydro-1H-pyrazolo[3,4-c]pyridine-3-carboxamide], the EC50 in the test on CMV was found to be 139 nM. The half-maximal inhibitory concentration (IC50) on CMV-polymerase (setting [1]) came to 15 nM.

For `Cn1nc(C(=O)NCc2ccc(C#N)cc2)c2c1C(=O)N(CC1(S(=O)(=O)C(C)(C)CN3CC(O)C3)CC1)CC2` [Example 65, N-(4-Cyanobenzyl)-6-((1-((1-(3-hydroxyazetidin-1-yl)-2-methylpropan-2-yl)sulfonyl)cyclopropyl)methyl)-1-methyl-7-oxo-4,5,6,7-tetrahydro-1H-pyrazolo[3,4-c]pyridine-3-carboxamide], the concentration giving a half-maximal response (EC50) in the test with CMV worked out at 50 nM. For the same molecule, the 50% inhibitory concentration (IC50) on CMV-polymerase (setting [1]) stood at 2 nM.

For the molecule `Cn1nc(C(=O)NCc2ccc(C#N)cc2)c2c1C(=O)N(CC1(S(=O)(=O)[C@H]3C[C@@H](O)C3)CC1)CC2` [Example 119, N-(4-Cyanobenzyl)-6-((1-(((1s,3s)-3-hydroxycyclobutyl)sulfonyl)cyclopropyl)methyl)-1-methyl-7-oxo-4,5,6,7-tetrahydro-1H-pyrazolo[3,4-c]pyridine-3-carboxamide], the concentration for a half-maximal effect (EC50) in the test on CMV stood at 156 nM. This molecule also returned an IC50 at CMV-polymerase (setting [2]) of 4 nM.

Consider `CC1(S(=O)(=O)C2(CN3CCc4c(C(=O)NCc5ccc(Cl)cc5)nn(CCOCCO)c4C3=O)CC2)CC1` [Example 222, N-(4-Chlorobenzyl)-1-(2-(2-hydroxyethoxy)ethyl)-6-((1-((1-methylcyclopropyl)sulfonyl)cyclopropyl)methyl)-7-oxo-4,5,6,7-tetrahydro-1H-pyrazolo[3,4-c]pyridine-3-carboxamide], for which the half-maximal effective concentration (EC50) with CMV amounted to 33 nM. The molecule further showed an IC50 on CMV-polymerase (setting [2]) of 3 nM.

Take `Cn1nc(C(=O)NOc2ccc(Cl)cc2)c2c1C(=O)N(CC1(S(=O)(=O)C3(C)CC3)CC1)CC2` [Example 37, N-(4-Chlorophenoxy)-1-methyl-6-((1-((1-methylcyclopropyl)sulfonyl)cyclopropyl)methyl)-7-oxo-4,5,6,7-tetrahydro-1H-pyrazolo[3,4-c]pyridine-3-carboxamide]: the EC50 in the test on CMV was determined as 105 nM. Moreover, the half-inhibitory concentration (IC50) on CMV-polymerase (setting [1]) was found to be 7 nM.

On to `Cn1nc(C(=O)NCc2ccc(Cl)cc2)c2c1C(=O)N(CC1(S(=O)(=O)Nc3ccccn3)CC1)CC2` [Example 158, N-(4-Chlorobenzyl)-1-methyl-7-oxo-6-((1-(N-(pyridin-2-yl)sulfamoyl)cyclopropyl)methyl)-4,5,6,7-tetrahydro-1H-pyrazolo[3,4-c]pyridine-3-carboxamide], for which, in the test on CMV, the EC50 was 37 nM. Moreover, the IC50 at CMV-polymerase (setting [1]) was 3 nM.

Consider `CO[C@@H]1CCN(CC(C)(C)S(=O)(=O)C2(CN3CCc4c(C(=O)NCc5ccc(C#N)cc5)nn(C)c4C3=O)CC2)C1` [Example 62, (R)-N-(4-cyanobenzyl)-6-((1-((1-(3-methoxypyrrolidin-1-yl)-2-methylpropan-2-yl)sulfonyl)cyclopropyl)methyl)-1-methyl-7-oxo-4,5,6,7-tetrahydro-1H-pyrazolo[3,4-c]pyridine-3-carboxamide], for which the EC50 in the test on CMV was 136 nM. The IC50 on CMV-polymerase (setting [1]) is 4 nM.

On to `Cn1nc(C(=O)NCc2ccc(C#N)cc2)c2c1C(=O)N(CC1(S(=O)(=O)N3C[C@H](N)[C@@H](O)C3)CC1)CC2` [Example 140, 6-((1-(((3S,4S)-3-Amino-4-hydroxypyrrolidin-1-yl)sulfonyl)cyclopropyl)methyl)-N-(4-cyanobenzyl)-1-methyl-7-oxo-4,5,6,7-tetrahydro-1H-pyrazolo[3,4-c]pyridine-3-carboxamide], for which, in the test with CMV, the concentration giving a half-maximal response (EC50) stood at 418 nM. Also, the IC50 on CMV-polymerase (setting [1]) stood at 11 nM.

For `Cn1nc(C(=O)NCc2ccc(C#N)cc2)c2c1C(=O)N(CC1(S(=O)(=O)Nc3cc(C4CC4)on3)CC1)CC2` [Example 167, N-(4-Cyanobenzyl)-6-((1-(N-(5-cyclopropylisoxazol-3-yl)sulfamoyl)cyclopropyl)methyl)-1-methyl-7-oxo-4,5,6,7-tetrahydro-1H-pyrazolo[3,4-c]pyridine-3-carboxamide], the EC50 in the test on CMV was 517 nM. At CMV-polymerase (setting [1]), the half-maximal inhibitory concentration (IC50) came out at 4 nM.

Consider `Cn1nc(C(=O)NCc2ccc(Cl)cc2)c2c1C(=O)N(CC1(S(=O)(=O)C(C)(C)CO)CC1)CC2` [Example 50, N-(4-Chlorobenzyl)-6-((1-((1-hydroxy-2-methylpropan-2-yl)sulfonyl)cyclopropyl)methyl)-1-methyl-7-oxo-4,5,6,7-tetrahydro-1H-pyrazolo[3,4-c]pyridine-3-carboxamide], for which the EC50 with CMV was found to be 20 nM. In addition, the IC50 at CMV-polymerase (setting [2]) was found to be 1 nM.

As for `Cn1nc(C(=O)NCc2ccc(C#N)cc2)c2c1C(=O)N(CC1(S(=O)(=O)C3CCOCC3)CC1)CC2` [Example 169, N-(4-Cyanobenzyl)-1-methyl-7-oxo-6-((1-((tetrahydro-2H-pyran-4-yl)sulfonyl)cyclopropyl)methyl)-4,5,6,7-tetrahydro-1H-pyrazolo[3,4-c]pyridine-3-carboxamide], the EC50 in the test on CMV is 201 nM. Further, at CMV-polymerase (setting [1]), the concentration for half-maximal inhibition (IC50) was 14 nM.

Take `Cn1nc(C(=O)NCc2ccc(C#N)cc2)c2c1C(=O)N(CC1(S(=O)(=O)C3(CN)COC3)CC1)CC2` [Example 174, 6-((1-((3-(aminomethyl)oxetan-3-yl)sulfonyl)cyclopropyl)methyl)-N-(4-cyanobenzyl)-1-methyl-7-oxo-4,5,6,7-tetrahydro-1H-pyrazolo[3,4-c]pyridine-3-carboxamide]: the EC50 with CMV stood at 212 nM. This molecule displayed an IC50 at CMV-polymerase (setting [2]) of 6 nM.

For `Cn1nc(C(=O)NCc2ccc(C#N)cc2)c2c1C(=O)N(CC1(S(=O)(=O)C(C)(C)COCC(C)(C)O)CC1)CC2` [Example 86, N-(4-Cyanobenzyl)-6-((1-((1-(2-hydroxy-2-methylpropoxy)-2-methylpropan-2-yl)sulfonyl)cyclopropyl)methyl)-1-methyl-7-oxo-4,5,6,7-tetrahydro-1H-pyrazolo[3,4-c]pyridine-3-carboxamide], the EC50 in the test on CMV came to 145 nM. Also, on CMV-polymerase (setting [2]), the IC50 is 18 nM.

As for `C[C@@H](NC(=O)c1nn(C)c2c1CCN(CC1(S(=O)(=O)C(C)(C)CO)CC1)C2=O)c1ccc(C#N)cc1` [Example 55, (R)-N-(1-(4-Cyanophenyl)ethyl)-6-((1-((1-hydroxy-2-methylpropan-2-yl)sulfonyl)cyclopropyl)methyl)-1-methyl-7-oxo-4,5,6,7-tetrahydro-1H-pyrazolo[3,4-c]pyridine-3-carboxamide], in the test with CMV, the EC50 was more than 10000 nM. In addition, the IC50 at CMV-polymerase (setting [1]) amounted to 601 nM.

Consider `COc1cccnc1NS(=O)(=O)C1(CN2CCc3c(C(=O)NCc4ccc(C#N)cc4)nn(C)c3C2=O)CC1` [Example 159, N-(4-Cyanobenzyl)-6-((1-(N-(3-methoxypyridin-2-yl)sulfamoyl)cyclopropyl)methyl)-1-methyl-7-oxo-4,5,6,7-tetrahydro-1H-pyrazolo[3,4-c]pyridine-3-carboxamide], for which, in the test on CMV, the EC50 came out at 298 nM. Besides, the IC50 at CMV-polymerase (setting [1]) is 13 nM.

Turning to `Cn1nc(C(=O)NCc2ccc(C#N)cc2)c2c1C(=O)N(CC1(S(=O)(=O)C(C)(C)[C@@H](O)CO)CC1)CC2` [Example 192, (S)-N-(4-Cyanobenzyl)-6-((1-((3,4-dihydroxy-2-methylbutan-2-yl)sulfonyl)cyclopropyl)methyl)-1-methyl-7-oxo-4,5,6,7-tetrahydro-1H-pyrazolo[3,4-c]pyridine-3-carboxamide], the concentration for a half-maximal effect (EC50) in the test with CMV came out at 35 nM. The half-inhibitory concentration (IC50) on CMV-polymerase (setting [1]) was determined as 1 nM.

On to `Cn1nc(C(=O)NCc2ccc(C#N)cc2)c2c1C(=O)N(CC1(S(=O)(=O)N3CC[C@@H](O)C3)CC1)CC2` [Example 126, (R)-N-(4-Cyanobenzyl)-6-((1-((3-hydroxypyrrolidin-1-yl)sulfonyl)cyclopropyl)methyl)-1-methyl-7-oxo-4,5,6,7-tetrahydro-1H-pyrazolo[3,4-c]pyridine-3-carboxamide], for which the EC50 in the test with CMV is 118 nM. On CMV-polymerase (setting [1]), the IC50 is 4 nM.

The values are drawn from patent publication US12338220B2, “Antiviral pyrazolopiridinone compounds” (Novartis AG, priority 2019, dated 2025).
